Results on 1 compound are retold here after ChEMBL document CHEMBL2203118, “Ethyl 2,4,6-trihydroxybenzoate is an agonistic ligand for liver X receptor that induces cholesterol efflux from macrophages without affecting lipid accumulation in HepG2 cells” (Bioorg Med Chem Lett, 2012).

Active and inactive are the calls of the source. The rule behind the calls is not given here.

For series [1], the system named is HepG2. The experiment in a line: Induction of lipid accumulation in human HepG2 cells assessed as increase in cellular triglyceride level at 50 to 100 uM by Oil Red O staining relative to control. The class given is cell-based. The note with it: hepg2, 100 µM.
Series [2] concerns the target T1, Oxysterols receptor LXR-alpha (Mus musculus) (UniProt Q9Z0Y9).
T1 sequence (whole entry): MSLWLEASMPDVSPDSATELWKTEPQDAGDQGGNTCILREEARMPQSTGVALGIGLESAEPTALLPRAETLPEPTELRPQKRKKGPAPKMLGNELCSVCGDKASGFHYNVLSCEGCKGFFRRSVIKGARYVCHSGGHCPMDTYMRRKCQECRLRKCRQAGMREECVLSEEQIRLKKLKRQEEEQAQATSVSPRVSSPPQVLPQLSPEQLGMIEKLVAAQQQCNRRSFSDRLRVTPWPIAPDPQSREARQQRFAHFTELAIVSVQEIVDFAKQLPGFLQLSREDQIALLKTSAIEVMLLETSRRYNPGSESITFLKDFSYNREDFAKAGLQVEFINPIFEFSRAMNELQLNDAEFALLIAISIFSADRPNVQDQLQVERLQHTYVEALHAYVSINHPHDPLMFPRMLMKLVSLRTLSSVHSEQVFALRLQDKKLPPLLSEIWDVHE
The experiment in a line: Agonist activity at LXR-alpha in mouse RAW264.7 cells assessed as reduction in cellular cholesterol level. The format is functional, cell-based.

The test system of a further series is RAW264.7. As to the kind of experiment: Cytotoxicity against mouse RAW264.7 after 48 hrs by MTT assay. The class given is cell-based. To be noted: raw264.7, 48 h.
Series [3] addresses T2, Oxysterols receptor LXR-alpha (Homo sapiens) (UniProt Q13133).
T2 sequence (whole entry): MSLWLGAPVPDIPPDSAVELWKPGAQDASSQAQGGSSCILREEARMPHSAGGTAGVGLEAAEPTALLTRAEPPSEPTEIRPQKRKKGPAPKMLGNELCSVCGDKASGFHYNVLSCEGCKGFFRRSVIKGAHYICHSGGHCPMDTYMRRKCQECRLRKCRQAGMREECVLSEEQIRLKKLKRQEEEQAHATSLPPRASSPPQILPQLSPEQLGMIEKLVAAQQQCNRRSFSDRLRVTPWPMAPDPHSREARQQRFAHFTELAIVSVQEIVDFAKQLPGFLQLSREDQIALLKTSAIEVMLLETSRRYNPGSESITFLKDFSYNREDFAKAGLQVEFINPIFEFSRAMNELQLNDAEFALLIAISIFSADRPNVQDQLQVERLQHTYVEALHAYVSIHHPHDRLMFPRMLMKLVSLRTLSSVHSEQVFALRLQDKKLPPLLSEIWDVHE
As to the kind of experiment: Transactivation of human LXR-alpha transfected in HEK293 cells at 100 uM after 24 hrs by luciferase reporter gene assay. The format is cell-based. For orientation: Reporter assays use an easily measured gene product as a stand-in for the process of interest.

For series [4], the system named is HepG2. As to the kind of experiment: Upregulation of FAS gene expression in human HepG2 cells at 50 to 100 uM by qPCR analysis. The note with it: hepg2, 100 µM. The class given is ADME, cell-based. In general terms: Real-time PCR tracks product formation cycle by cycle.
In series [5] the target is T3, Liver X receptor (Homo sapiens) (UniProt Q13133+P55055). As to the kind of experiment: Agonist activity at LXR in human Caco2 cells assessed as increase in ABCA1 mRNA level at 100 uM after 48 hrs by qPCR analysis relative to control. The class given is functional, cell-based. To be noted: Caco-2.
A short description of series [6]: Agonist activity at LXR in mouse RAW 264.7 assessed as induction of ABCA1 mRNA expression at 100 uM after 48 hrs by qPCR analysis relative to control. The format is functional.
Series [7] concerns the target T2, Oxysterols receptor LXR-alpha (Homo sapiens). As to the kind of experiment: Binding affinity to human LXR-alpha LBD by SPR-Biacore assay.
Series [8] has as its target T3, Liver X receptor (Homo sapiens). The experiment in a line: Agonist activity at LXR in human THP1 cells assessed as induction of ABCG1 gene expression after 48 hrs by qPCR analysis. The class given is functional, cell-based. The note with it: THP-1.
Series [9] relates to HepG2. The experiment in a line: Reduction in SCD-1 gene expression in human HepG2 cells at 100 uM by qPCR analysis relative to control. Also noted: scale not given: the % may be the effect or the level left. The class given is functional.
Series [10] has as its target T3, Liver X receptor (Homo sapiens). The experiment in a line: Agonist activity at LXR in human THP1 monocytes assessed as increase in ABCG1 mRNA level at 100 uM after 48 hrs by qPCR analysis relative to control. The class given is functional, cell-based.
Series [11] deals with HepG2. The experiment in a line: Upregulation of CPT-1 gene expression in human HepG2 at 100 uM by qPCR analysis relative to control. The class given is functional, cell-based.
Series [12] has as its target T3, Liver X receptor (Homo sapiens). The experiment in a line: Agonist activity at LXR in human Caco2 cells assessed as increase in ABCG8 mRNA level at 100 uM after 48 hrs by qPCR analysis relative to control. The note with it: Caco-2. The class given is functional, cell-based.
In series [13] the target is T4, Oxysterols receptor LXR-beta (Homo sapiens) (UniProt P55055).
T4 sequence (whole entry): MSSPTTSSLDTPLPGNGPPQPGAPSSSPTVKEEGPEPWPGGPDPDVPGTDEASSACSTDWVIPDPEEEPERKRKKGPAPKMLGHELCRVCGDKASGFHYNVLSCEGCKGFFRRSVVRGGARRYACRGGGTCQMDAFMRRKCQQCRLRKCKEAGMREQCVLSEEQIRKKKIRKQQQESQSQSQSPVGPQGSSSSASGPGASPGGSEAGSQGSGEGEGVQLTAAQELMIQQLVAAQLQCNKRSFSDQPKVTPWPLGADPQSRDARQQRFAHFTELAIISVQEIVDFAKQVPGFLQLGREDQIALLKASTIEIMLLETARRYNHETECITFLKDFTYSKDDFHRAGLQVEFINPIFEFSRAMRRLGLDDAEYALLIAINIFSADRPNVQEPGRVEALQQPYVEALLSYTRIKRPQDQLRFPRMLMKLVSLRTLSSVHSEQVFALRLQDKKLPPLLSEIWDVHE
The experiment in a line: Transactivation of human LXR-beta transfected in HEK293 cells at 100 uM after 24 hrs by luciferase reporter gene assay. The format is cell-based.

A short description of series [14]: Agonist activity at LXR in mouse RAW 264.7 assessed as increase in ABCG1mRNA level at 100 uM after 48 hrs by qPCR analysis relative to control. The class given is functional.
The target of series [15] is T3, Liver X receptor (Homo sapiens). The experiment in a line: Agonist activity at LXR in human THP1 cells assessed as induction of ABCA1 gene expression after 48 hrs by qPCR analysis. The class given is functional, cell-based. To be noted: THP-1.
Series [16] concerns HepG2. The experiment in a line: Induction of lipid accumulation in human HepG2 cells assessed as increase in cellular triglyceride level by Dil staining relative to control. The class given is cell-based.
The test system of series [17] is HepG2. As to the kind of experiment: Upregulation of ACOX gene expression in human HepG2 at 100 uM by qPCR analysis relative to control. The format is functional, cell-based.
Series [18] has as its target T2, Oxysterols receptor LXR-alpha (Homo sapiens). The experiment in a line: Agonist activity at LXR-alpha in human HepG2 cells assessed as reduction in cellular cholesterol level. The format is functional, cell-based.

For `CCOC(=O)c1c(O)cc(O)cc1O`, the Activity entry with HepG2 [1] is “Non-toxic”; in series [2], “Dose-dependent effect”; in the series on RAW264.7, “Non-toxic”; in series [3], 64%; in the series with HepG2 [4], “Non-toxic”; in series [8], “Dose-dependent effect”. The Activity was 54.09% in the series with HepG2 [9]; 55% in series [13]; “Dose-dependent effect” in [15]; “Non-toxic” in the series with HepG2 [16]; “Dose-dependent effect” in series [18]. For the same compound, the fold change (FC) in [5] was found to be 2.1; in [6], 2.1; in series [10] it was 5.2; in series [12], 1.5; in series [14], 2.9. The outcome (in [7]; in the series on HepG2 [11]; with HepG2 [17]) was Active.
